The test deals with T1, GCase (Homo sapiens, UniProt P04062).
T1 construct: endogenous in cells; host or cells: HeLa cells
T1 sequence (P04062 40-536): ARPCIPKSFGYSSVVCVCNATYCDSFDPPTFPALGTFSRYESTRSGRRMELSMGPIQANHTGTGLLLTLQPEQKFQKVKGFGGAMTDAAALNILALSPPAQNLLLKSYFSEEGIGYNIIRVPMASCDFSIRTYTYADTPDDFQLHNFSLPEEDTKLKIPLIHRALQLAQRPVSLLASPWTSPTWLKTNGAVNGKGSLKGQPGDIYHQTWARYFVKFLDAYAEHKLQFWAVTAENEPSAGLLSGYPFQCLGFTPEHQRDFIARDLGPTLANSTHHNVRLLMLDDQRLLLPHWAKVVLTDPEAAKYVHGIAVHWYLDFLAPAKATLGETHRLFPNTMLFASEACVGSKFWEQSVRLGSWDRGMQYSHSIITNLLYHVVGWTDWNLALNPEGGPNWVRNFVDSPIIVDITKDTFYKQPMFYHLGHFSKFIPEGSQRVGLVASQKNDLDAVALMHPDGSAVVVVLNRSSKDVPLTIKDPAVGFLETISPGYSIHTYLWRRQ
Description: activation of GCase in a live cell PFB assay in HELA cells. The class given is cell-based.

This passage reports EC50 results from US20240262832A1, “SMALL MOLECULE MODULATORS OF GLUCOCEREBROSIDASE ACTIVITY AND USES THEREOF” (Vanqua Bio, Inc., priority 2021, published 2024).

SMILES strings stand for the structures. Some results are limits rather than exact numbers.

`C[C@H]1CCN(c2cnc3cnn(CC(F)F)c3n2)C[C@@H]1COc1cccnc1C(F)(F)F` [Compound 48c, 1-(2,2-difluoroethyl)-6-((3R,4S)-4-methyl-3-(((2-(trifluoromethyl)pyridin-3-yl)oxy)methyl)piperidin-1-yl)-1H-pyrazolo[3,4-b]pyrazine] registered an EC50 of 10 to 50 µM.
Turning to `O=C(Cc1csc(-c2ccccc2)n1)N1CCC(COCc2ccccc2)CC1` [Compound 335, 1-{4-[(Benzyloxy)methyl]piperidin-1-yl}-2-(2-phenyl-1,3-thiazol-4-yl)ethan-1-one], the EC50 lay within 10 to 50 µM.
Regarding `FC(F)Cn1ncc2ncc(N3CCC(Oc4cc(C(F)(F)F)ccn4)CC3)nc21` [Compound 326, 1-(2,2-Difluoroethyl)-6-(4-((4-(trifluoromethyl)pyridin-2-yl)oxy)piperidin-1-yl)-1H-pyrazolo[3,4-b]pyrazine], the EC50 lay within 10 to 50 µM.
`CCn1c(-c2nncs2)nc2ncc(N3CCCC(COc4ccccc4C)C3)nc21` (centres unmarked) [Compound 30, 2-(1-Ethyl-6-(3-((o-tolyloxy)methyl)piperidin-1-yl)-1H-imidazo[4,5-b]pyrazin-2-yl)-1,3,4-thiadiazole] showed a concentration giving a half-maximal response (EC50) of more than 100 µM.
Turning to `COc1ccc(OCC2CCN(Cc3c[nH]c(C#N)c3)CC2)cc1` [Compound 456], the EC50 was less than 10 µM.
As for `O=C(c1ccc2cc[nH]c2c1)N1CCC(COc2ccccc2)CC1` [Compound 416, 6-[4-(Phenoxymethyl)piperidine-1-carbonyl]-1H-indole], the EC50 was 10 to 50 µM.
`COc1ccc(OCC2CCN(Cc3[nH]cnc3C)CC2)cc1` [Compound 453]: the EC50 is more than 100 µM.
For the compound `CC1CC(COc2cccnc2C(F)(F)F)CN(c2cnc3cnn(CC(F)F)c3n2)C1` (single isomer, unassigned) [Compound 47b], the 50% effective concentration (EC50) is less than 10 µM.
As for `O=C(c1cc(-c2cccc(F)c2)no1)N1CCCC(COc2ccccc2)C1` (centres unmarked) [Compound 197], the figure is 10 to 50 µM.
In the case of `COc1ccc(OCC2CCN(Cc3cscn3)CC2)cc1` [Compound 477] it was less than 10 µM.
Turning to `O=C(c1cncc(-c2nncs2)n1)N1C[C@@H]2[C@@H](COc3cccc(C(F)(F)F)n3)[C@@H]2C1` [Compound 226, (1R,5S,6S)-3-[6-(1,3,4-thiadiazol-2-yl)pyrazine-2-carbonyl]-6-({[6-(trifluoromethyl)pyridin-2-yl]oxy}methyl)-3-azabicyclo[3.1.0]hexane], the EC50 was in the range of 10 to 50 µM.
On to `O=C(c1ccc2cc[nH]c2c1)N1CCC(Oc2ccncc2C(F)(F)F)CC1` [Compound 318, (1H-Indol-6-yl)(4-((3-(trifluoromethyl)pyridin-4-yl)oxy)piperidin-1-yl)methanone], for which the EC50 was 10 to 50 µM.
As for `COCCn1ncc2ncc(N3C[C@@H](C)C[C@H](COc4cccnc4C(F)(F)F)C3)nc21` [Compound 230b, 1-(2-Methoxyethyl)-6-((3S,5S)-3-methyl-5-(((2-(trifluoromethyl)pyridin-3-yl)oxy)methyl)piperidin-1-yl)-1H-pyrazolo[3,4-b]pyrazine], the figure is less than 10 µM; as for `COc1ccc(OCC2CCN(C(=O)COCC3CCCO3)CC2)cc1` (centres unmarked) [Compound 422], 10 to 50 µM.
As for `O=C(N1CCC(Oc2ccccc2)CC1)C1(c2ccccc2)CCCC1` [Compound 404, 4-Phenoxy-1-(1-phenylcyclopentanecarbonyl)piperidine], the concentration for a half-maximal effect (EC50) was 10 to 50 µM.
`O=C(Cc1csc(-c2ccccc2)n1)N1CCC(Oc2ccnc(C(F)(F)F)c2)CC1` [Compound 399, 2-(2-Phenyl-1,3-thiazol-4-yl)-1-(4-{[2-(trifluoromethyl)pyridin-4-yl]oxy}piperidin-1-yl)ethan-1-one] had an EC50 of 10 to 50 µM.
In turn, `CC(C)c1cc(C(=O)N2CCCC(COc3ccccc3)C2)c(C(C)C)o1` (centres unmarked) [Compound 207] displayed an EC50 of less than 10 µM.
Consider `CCc1nc2ccccc2n1CC(=O)N1CCCC(COc2ccccc2)C1` (centres unmarked) [Compound 140], for which the concentration for a half-maximal effect (EC50) lay in the range of 10 to 50 µM.
In turn, `FC(F)Cn1ncc2ncc(N3CCCC(COc4nccnc4Cl)C3)nc21` (centres unmarked) [Compound 69, 6-(3-(((3-Chloropyrazin-2-yl)oxy)methyl)piperidin-1-yl)-1-(2,2-difluoroethyl)-1H-pyrazolo[3,4-b]pyrazine] returned a half-maximal effective concentration (EC50) of more than 100 µM.
Take `COc1ccc2c(c1)CCCC2CC(=O)N1CCCC(COc2ccccc2)C1` (centres unmarked) [Compound 135]: the EC50 is 10 to 50 µM.
In the case of `CN(CC1CCCN(c2ncccc2C(F)(F)F)C1)c1cnc2cnn(CC(F)F)c2n1` (centres unmarked) [Compound 289, 1-(2,2-Difluoroethyl)-N-methyl-N-((1-(3-(trifluoromethyl)pyridin-2-yl)piperidin-3-yl)methyl)-1H-pyrazolo[3,4-b]pyrazin-6-amine] it was less than 10 µM.
Turning to `CC1CCC(COc2cccnc2C(F)(F)F)CN1c1cnc2cnn(CC(F)F)c2n1` (centres unmarked) [Compound 31, 1-(2,2-Difluoroethyl)-6-(2-methyl-5-(((2-(trifluoromethyl)pyridin-3-yl)oxy)methyl)piperidin-1-yl)-1H-pyrazolo[3,4-b]pyrazine], the EC50 is less than 10 µM.
Take `CC(C)(C)CC(=O)N1CCC(COc2cccc(C(F)(F)F)n2)CC1` [Compound 351]: the EC50 lay in the range of 10 to 50 µM.
As to `COc1ccc(OCC2CCN(c3ncnc4cc[nH]c34)CC2)cc1` [Compound 427], the EC50 lay in the range of 10 to 50 µM.
In the case of `Cn1c(-c2ccc(F)cc2)nc2nc(C(=O)N3CCCC(COc4cccnc4C(F)(F)F)C3)cnc21` (centres unmarked) [Compound 97, (2-(4-Fluorophenyl)-1-methyl-1H-imidazo[4,5-b]pyrazin-5-yl)(3-(((2-(trifluoromethyl)pyridin-3-yl)oxy)methyl)piperidin-1-yl)methanone] it was more than 100 µM; in that of `CC(C)Sc1ccc(CC(=O)N2CCC(Oc3ccc(C(F)(F)F)cn3)CC2)cc1` [Compound 383], 10 to 50 µM; in that of `Cc1ccccc1OCC1CCCN(C(=O)c2cnc3c(cnn3-c3ccccc3)n2)C1` (centres unmarked) [Compound 67, (1-phenyl-1H-pyrazolo[3,4-b]pyrazin-5-yl)(3-((o-tolyloxy)methyl)piperidin-1-yl)methanone], 10 to 50 µM.
Compound `FC(F)Cn1ncc2ncc(N3C[C@@H]4[C@@H](COc5cnccc5C(F)(F)F)[C@@H]4C3)nc21` [Compound 91, (1R,5S,6S)-3-[1-(2,2-difluoroethyl)-1H-pyrazolo[3,4-b]pyrazin-6-yl]-6-({[4-(trifluoromethyl)pyridin-3-yl]oxy}methyl)-3-azabicyclo[3.1.0]hexane] returned an EC50 of 10 to 50 µM.
`FC(F)(F)Cn1ncc2ncc(N3C[C@@H]4[C@@H](COc5cccnc5C(F)(F)F)[C@@H]4C3)nc21` [Compound 101, (1R,5S,6S)-3-[1-(2,2,2-Trifluoroethyl)-1H-pyrazolo[3,4-b]pyrazin-6-yl]-6-({[2-(trifluoromethyl)pyridin-3-yl]oxy}methyl)-3-azabicyclo[3.1.0]hexane] yielded an EC50 of 10 to 50 µM.
In turn, `COc1ccc(OCC2CCN(CCCn3ccnc3C)CC2)cc1` [Compound 454] returned an EC50 of more than 100 µM.
The compound `CCNC(=O)c1ccc(N2CCC(COc3ccc(OC)cc3)CC2)nc1` [Compound 438] had an EC50 of 10 to 50 µM.
As for `Cc1nccn1CCCC(=O)N1CCC(OCc2ccccc2)CC1` [Compound 451], the figure is more than 100 µM; as for `O=c1cc(-c2ccccc2)cc(N2CCC[C@H](COc3cccnc3C(F)(F)F)C2)[nH]1` [Compound 300, (S)-4-Phenyl-6-(3-(((2-(trifluoromethyl)pyridin-3-yl)oxy)methyl)piperidin-1-yl)pyridin-2(1H)-one], 10 to 50 µM.
`CC(C)c1cc(C(=O)N2CC(COc3cccnc3C(F)(F)F)CCC2C)[nH]n1` (centres unmarked) [Compound 231, (3-isopropyl-1H-pyrazol-5-yl)(2-methyl-5-(((2-(trifluoromethyl)pyridin-3-yl)oxy)methyl)piperidin-1-yl)methanone] displayed an EC50 of less than 10 µM.
`Fc1cc(F)cc(OC[C@@H]2[C@H]3CN(c4cnc5cnn(C6COC6)c5n4)C[C@@H]23)c1` [Compound 124] yielded an EC50 of 10 to 50 µM.
As for `CCc1nc(CNC(=O)N2CCC(COc3ccc(OC)cc3)CC2)no1` [Compound 460], the figure is 50 to 100 µM; as for `N#Cc1cccnc1OC1CCN(C(=O)C2(c3ccc(Cl)cc3)CCCC2)CC1` [Compound 370], less than 10 µM.
As for `FC(F)Cn1ncc2ncc(N3C[C@@H]4[C@@H](COc5ccnc(C(F)(F)F)c5)[C@@H]4C3)nc21` [Compound 92, (1R,5S,6S)-3-[1-(2,2-difluoroethyl)-1H-pyrazolo[3,4-b]pyrazin-6-yl]-6-({[2-(trifluoromethyl)pyridin-4-yl]oxy}methyl)-3-azabicyclo[3.1.0]hexane], the EC50 was in the range of 10 to 50 µM.
In the case of `CC(C)c1cc(C(=O)N2C[C@@H]3[C@@H](COc4cccc(C(F)(F)F)n4)[C@@H]3C2)[nH]n1` [Compound 75, (1R,5S,6S)-3-[3-(Propan-2-yl)-1H-pyrazole-5-carbonyl]-6-({[6-(trifluoromethyl)pyridin-2-yl]oxy}methyl)-3-azabicyclo[3.1.0]hexane], the EC50 fell in the range of 10 to 50 µM.
As for `FC(F)Cn1ncc2ncc(N3CCC(COc4cccnc4C(F)(F)F)CC3)nc21` [Compound 323, 3-({1-[1-(2,2-Difluoroethyl)-1H-pyrazolo[3,4-b]pyrazin-6-yl]piperidin-4-yl}methoxy)-2-(trifluoromethyl)pyridine], the EC50 is less than 10 µM.
As for `O=C(Cc1csc(-c2ccccc2)n1)N1CCC(OCCc2ccccc2)CC1` [Compound 336, 2-(2-Phenyl-1,3-thiazol-4-yl)-1-[4-(2-phenylethoxy)piperidin-1-yl]ethan-1-one], the figure is 10 to 50 µM.

One may read the EC50 as the concentration that produces a half-maximal response. Low readings indicate higher potency in that assay, high ones lower potency in that assay.
